Tested on: Human CCL2 (MCP-1)
Assay: MCP1/CCL2 secretion in primary human hepatocytes (FFA + TNFα, ELISA after 24 h)
Type: cell-based
Conditions: for MCP1 expression relative to Control, Mean: baseline subtracted; for MCP1/CCL2 secretion: primary human hepatocytes from two healthy donors, FFA + TNFα, 24 h
Procedure: Hepatocyte lipotoxicity appears to be a central driver of hepatic cellular injury via oxidative stress and endoplasmic reticulum (ER) stress. The ability of amino acids to influence steatosis (lipid accumulation) and inflammation in hepatocytes was assessed using human primary hepatocytes (Lonza, TRL).
Primary hepatocytes lot nos. from two healthy human donors were seeded on day 0 at density of 6e04 cells in 96 well optical microplates (Thermofisher) in hepatocyte plating media (William's E medium (Gibco) supplemented with 10% heat-inactivated FBS (Atlanta Bio), 2 mM Glutamax (Gibco), and 0.2% Primocin (InVivoGen) and incubated for 6 hours at 37° C., 5% CO2. After 6 hours, cells were washed twice and incubated overnight at 37° C., 5% CO2 with Hepatocytes defined medium (Corning) supplemented with 2 mM Glutamax (Gibco), and 1×Penicillin/Streptomycin. On day 1, cells were washed twice and incubated for 24 h in the hepatocyte culture media in the same conditions described above.
On day 2, cells were washed twice with DPBS 1 X (Gibco) and maintained in amino acid-free WEM (US Biologicals) containing a defined custom amino acid concentration based on the mean physiological concentrations in blood. The values are published in the Human Metabolome Database (Wishart D S, Tzur D, Knox C, et al., HMDB: the Human Metabolome Database. Nucleic Acids Res. 2007 January; 35 (Database issue): D521-6. 17202168; which is hereby incorporated by reference in its entirety). This custom media is supplemented with 11 mM Glucose, 0.272 mM Sodium Pyruvate, and a dose curve of defined amino acid compositions (i.e., vehicle, LIVRQ+N-acetylcysteine, LIVRQ, RQ+N-acetylcysteine, N-acetylcysteine alone, LIV, or individually with L-Leucine, L-Isoleucine, L-Valine, L-Arginine, L-Glutamine, and L-Cysteine) at various ranges of concentrations. Cells were maintained in this defined media for 24 hours at 37° C., 5% CO2.
Co-treatment with free fatty acids and different amino acids combination After pre-treatment, cells were exposed to free fatty acids (FFA) at 250 uM with a ratio of 2:1 (Oleate: Palmitate) supplemented with TNF-α (Thermofisher) at 1 ng/ml or vehicle. Cells were incubated with the FFAs mixture and the different amino acids combinations for 24 hours at 37° C., 5% CO2. After 24 hours incubation, media was removed for cytokine analysis and replaced by fresh media containing the same stimulus conditions and amino acid concentrations. Cells were incubated for an additional 48 hours for a total of 72 hours of FFA and TNFα stimulation.
Human CCL2 (MCP-1) was measured by ELISA (Human […] DuoSet ELISA, R&D Systems) at ⅕ or 1/10 dilution in 1 X Reagent Diluent (Reagent Ancillary Kit 2, R&D Systems). Data were normalized to the specific per well cell density determined by nuclei count stained by Hoechst 3342 (Life technologies) in the fluorescence microscopy described below.
MCP1 CCL2 Secretion Tables 56-59 show the baseline subtracted secretion of MCP1/CCL2 in primary human hepatocytes cells from two healthy donors (donor 1 for Tables 56 and 57, and donor 2 for Tables 58 and 59).

## CC[C@H](C)[C@H](N)C(=O)O [Isoleucine, L-Isoleucine]
Donor 1, Conc. 66 μM
  MCP1 expression relative to Control, Mean: −1.2E−15
Donor 1, Conc. 1328 μM
  MCP1 expression relative to Control, Mean: −0.3073
Donor 1, Conc. 3320 μM
  MCP1 expression relative to Control, Mean: −2.417
Donor 1, Conc. 6639 μM
  MCP1 expression relative to Control, Mean: −0.205
Donor 2, Conc. 66 μM
  MCP1 expression relative to Control, Mean: 0
Donor 2, Conc. 1328 μM
  MCP1 expression relative to Control, Mean: 26.62
Donor 2, Conc. 3320 μM
  MCP1 expression relative to Control, Mean: −5.645
Donor 2, Conc. 6639 μM
  MCP1 expression relative to Control, Mean: 18.62
  MCP1/CCL2 secretion: did not have an effect

## CC(C)C[C@H](N)C(=O)O [Leucine, L-Leucine]
Donor 1, Conc. 153 μM
  MCP1 expression relative to Control, Mean: 5.92E−16
Donor 1, Conc. 3054 μM
  MCP1 expression relative to Control, Mean: 3.34
Donor 1, Conc. 7635 μM
  MCP1 expression relative to Control, Mean: 1.896
Donor 1, Conc. 15270 μM
  MCP1 expression relative to Control, Mean: −1.368
Donor 2, Conc. 153 μM
  MCP1 expression relative to Control, Mean: −4.7E−15
Donor 2, Conc. 3054 μM
  MCP1 expression relative to Control, Mean: 16.11
Donor 2, Conc. 7635 μM
  MCP1 expression relative to Control, Mean: −2.988
Donor 2, Conc. 15270 μM
  MCP1 expression relative to Control, Mean: −26.6436
  MCP1/CCL2 secretion: did not have an effect

## CC(=O)N[C@@H](CS)C(=O)O [N-acetyl cysteine, N-acetylcysteine]
Donor 1, Conc. 1000 μM
  MCP1 expression relative to Control, Mean: −0.7629
Donor 1, Conc. 2500 μM
  MCP1 expression relative to Control, Mean: −2.498
Donor 1, Conc. 5000 μM
  MCP1 expression relative to Control, Mean: −10.8919
Donor 1, Conc. 10000 μM
  MCP1 expression relative to Control, Mean: −17.6065
Donor 1, Conc. (X) 5
  MCP1 expression relative to Control, Mean: −0.7629
Donor 1, Conc. (X) 10
  MCP1 expression relative to Control, Mean: −2.498
Donor 1, Conc. (X) 20
  MCP1 expression relative to Control, Mean: −10.8919
Donor 1, Conc. (X) 40
  MCP1 expression relative to Control, Mean: −17.6065
Donor 2, Conc. 1000 μM
  MCP1 expression relative to Control, Mean: 1.602
Donor 2, Conc. 2500 μM
  MCP1 expression relative to Control, Mean: −4.0591
Donor 2, Conc. 5000 μM
  MCP1 expression relative to Control, Mean: −10.5725
Donor 2, Conc. 10000 μM
  MCP1 expression relative to Control, Mean: −28.4419
Donor 2, Conc. (X) 1000
  MCP1 expression relative to Control, Mean: 1.602
Donor 2, Conc. (X) 2500
  MCP1 expression relative to Control, Mean: −4.0591
Donor 2, Conc. (X) 5000
  MCP1 expression relative to Control, Mean: −10.5725
Donor 2, Conc. (X) 10000
  MCP1 expression relative to Control, Mean: −28.4419
  MCP1/CCL2 secretion: significantly decrease

## CC(C)[C@H](N)C(=O)O [Valine, L-Valine]
Donor 1, Conc. 234 μM
  MCP1 expression relative to Control, Mean: −2.4E−15
Donor 1, Conc. 4684 μM
  MCP1 expression relative to Control, Mean: 23.6867
Donor 1, Conc. 11710 μM
  MCP1 expression relative to Control, Mean: 77.73
Donor 1, Conc. 23420 μM
  MCP1 expression relative to Control, Mean: 14.17
Donor 2, Conc. 234 μM
  MCP1 expression relative to Control, Mean: −1.4E−14
Donor 2, Conc. 4684 μM
  MCP1 expression relative to Control, Mean: 10.79
Donor 2, Conc. 11710 μM
  MCP1 expression relative to Control, Mean: 38.25
Donor 2, Conc. 23420 μM
  MCP1 expression relative to Control, Mean: −30.7921
  MCP1/CCL2 secretion: did not have an effect

## N=C(N)NCCC[C@H](N)C(=O)O [arginine, L-Arginine]
Donor 1, Conc. 109 μM
  MCP1 expression relative to Control, Mean: 2.37E−15
Donor 1, Conc. 1088 μM
  MCP1 expression relative to Control, Mean: 5.114
Donor 1, Conc. 2720 μM
  MCP1 expression relative to Control, Mean: 6.527
Donor 1, Conc. 5440 μM
  MCP1 expression relative to Control, Mean: 10.9386
Donor 2, Conc. 109 μM
  MCP1 expression relative to Control, Mean: −4.7E−15
Donor 2, Conc. 1088 μM
  MCP1 expression relative to Control, Mean: 24.95
Donor 2, Conc. 2720 μM
  MCP1 expression relative to Control, Mean: 24.06
Donor 2, Conc. 5440 μM
  MCP1 expression relative to Control, Mean: 8.494
  MCP1/CCL2 secretion: increased
